Consider 5 compounds from patent US8865731B2, “Inhibitor of analgesic tolerance” (Kyowa Hakko Kirin Co., Ltd., priority 2008, dated 2014).

The subject of series [1] is Male ddY mice. Briefly: Suppressing activity on morphine-induced constipation (number of fecal pellets). Type of series: in vivo. Particulars: for number of fecal pellets: FIG. 2. The method, then:
Food and water were provided ad libitum. At the time of collection of fecal pellets, food and water were not provided.
Morphine was dissolved in physiological saline at a concentration of 0.3 mg/mL and subcutaneously administered at a dose of 3 mg/kg.
On the day of the test, the tails of the mice were numbered for identification, and the body weight of each mouse was measured. On the basis of the measured body weight, 0.5% MC or Compound (IA) was orally administered. At 30 minutes after administration of 0.5% MC or Compound (IA), physiological saline or morphine was subcutaneously administered, and collection of fecal pellets was started. The fecal pellets were collected at 3 hours after administration of morphine. The amount of feces was evaluated by counting the number of the fecal pellets.

The subject of series [2] is Male ddY mice. Briefly: Suppressing activity on morphine analgesic tolerance (hot plate method, response latency). Type of series: in vivo. Particulars: for ΔChange (Latency at each time point − Pre value) 0.5 h / ΔChange (Latency at each time point − Pre value) 1 h / ΔChange (Latency at each time point − Pre value) 2 h: single morphine administration group: morphine 6 mg/kg s.c. only on day 7.

The next series has as its system adenosine A2A receptor. The settings on record: known from the literature (Eur. J. Pharmacol., 1994, 267(3), 335 and others); cited from earlier work.
The subject of series [3] is Male ddY mice. Briefly: Suppressing activity on oxycodone analgesic tolerance (hot plate method, response latency). The settings on record: for Latency (sec) Pre value (before drug administration on last day) / ΔChange (Latency at each time point − Pre value) 0.5 h / ΔChange (Latency at each time point − Pre value) 1 h / ΔChange (Latency at each time point − Pre value) 2 h: Table 6. In general terms: In hot-plate and tail-flick tests a longer latency is read as antinociception.

The test system of series [4] is Male ddY mice. The series can be described thus: Suppressing activity on morphine analgesic tolerance (hot plate method, response latency). Type of series: in vivo. The settings on record: for ΔChange (Latency at each time point − Pre value) 0.5 h / ΔChange (Latency at each time point − Pre value) 1 h / ΔChange (Latency at each time point − Pre value) 2 h: Table 3; for ΔChange (Latency at each time point − Pre value) 0.5 h: day 7, 0.5 h; for ΔChange (Latency at each time point − Pre value) 1 h: day 7, 1 h; for ΔChange (Latency at each time point − Pre value) 2 h: day 7, 2 h; for development of analgesic tolerance (response latency) / effect on the response latency: Test Example 4; for development of analgesic tolerance (response latency): compound 10 mg/kg p.o. 30 min before each morphine 6 mg/kg s.c. The method, then: (§1) Food and water were provided ad libitum.
(§2) Morphine was dissolved in physiological saline at a concentration of 0.6 mg/mL and subcutaneously administered at a dose of 6 mg/kg.
as §1, §2
The effect of Compounds (IC) and (ID) on morphine analgesic tolerance was studied. The experiment was performed in the same manner as in Test Example 3. Compounds (IC) and (ID) were used at a dose of 10 mg/kg, respectively.

Where [5] appears, read: compound 10 mg/kg p.o. repeatedly administered alone.
[6] abbreviates: repeated combination group: compound 10 mg/kg p.o. 30 min before each morphine 6 mg/kg s.c., 7 days.

Turning to `CCCn1c(=O)c2c(nc(/C=C/c3ccc(OC)c(OC)c3)n2C)n(CCC)c1=O` [Compound (IA)], in the series with Male ddY mice [1] (Compound (IA) 10 mg/kg p.o. 30 min before morphine 3 mg/kg s.c., 3 hours, vs morphine administration group), the “number of fecal pellets” value is “significantly increased”. Also, the diarrhea entry is listed as “diarrhea was not induced” with Male ddY mice [1] (combination: Compound (IA) 10 mg/kg p.o. and morphine 3 mg/kg s.c.); “diarrhea was not induced” in the series with Male ddY mice [1] (only Compound (IA) 10 mg/kg p.o. administered). Moreover, the “development of analgesic tolerance (response latency)” value (“development of analgesic tolerance” for short) in the series with Male ddY mice [2] (Test Example 1, FIG. 1, Compound (IA) 10 mg/kg p.o. 30 min before morphine 6 mg/kg s.c., repeated 7 days) is on record as “the development of analgesic tolerance was prevented”; with Male ddY mice [3] (Test Example 7, Compound (IA) 10 mg/kg p.o. 30 min before oxycodone 20 mg/kg p.o., 4 days) it was “the development of analgesic tolerance was prevented”. Further, the “effect on the response latency” value in the series on Male ddY mice [2] (Test Example 1, FIG. 1, Compound (IA) 10 mg/kg p.o. repeatedly administered alone) was “the effect on the response latency was not observed”; in the series with Male ddY mice [3] (Test Example 7, Compound (IA) 10 mg/kg p.o. repeatedly administered alone), “the effect on the response latency was not observed”. Also, the “adenosine A2A receptor antagonistic activity” value in the series with adenosine A2A receptor was “potent and selective”. For the same compound, the “Latency (sec) Pre value (before drug administration on last day)” value in the series with Male ddY mice [3] (Compound (IA) 10 mg/kg p.o. repeatedly administered alone, day 4) was determined as 11.9 ± 1.2 s; in the series with Male ddY mice [3] (repeated combination group: Compound (IA) 10 mg/kg p.o. 30 min before oxycodone 20 mg/kg p.o., 4 days, day 4) it was 11.9 ± 0.7 s. Also, the “ΔChange (Latency at each time point − Pre value) 0.5 h” value was -0.2 ± 1.7 s with Male ddY mice [3] (Compound (IA) 10 mg/kg p.o. repeatedly administered alone, day 4, 0.5 h) and 13.5 ± 2.6 s in the series on Male ddY mice [3] (repeated combination group: Compound (IA) 10 mg/kg p.o. 30 min before oxycodone 20 mg/kg p.o., 4 days, day 4, 0.5 h). The “ΔChange (Latency at each time point − Pre value) 1 h” value with Male ddY mice [3] (Compound (IA) 10 mg/kg p.o. repeatedly administered alone, day 4, 1 h) is -0.4 ± 2.2 s; in the series on Male ddY mice [3] (repeated combination group: Compound (IA) 10 mg/kg p.o. 30 min before oxycodone 20 mg/kg p.o., 4 days, day 4, 1 h), 6.0 ± 1.6 s. Besides, the “ΔChange (Latency at each time point − Pre value) 2 h” value in the series with Male ddY mice [3] (Compound (IA) 10 mg/kg p.o. repeatedly administered alone, day 4, 2 h) is -0.1 ± 2.2 s; with Male ddY mice [3] (repeated combination group: Compound (IA) 10 mg/kg p.o. 30 min before oxycodone 20 mg/kg p.o., 4 days, day 4, 2 h) it was 2.2 ± 1.6 s.
As for `CCn1c(=O)c2c(nc(/C=C/c3cc(OC)c(OC)c(OC)c3)n2C)n(CC)c1=O` [Compound (IC)], in the series on Male ddY mice [4] (setting [5]), the “ΔChange (Latency at each time point − Pre value) 0.5 h” value came out at 1.0 ± 0.7 s, the “ΔChange (Latency at each time point − Pre value) 1 h” value was 3.3 ± 1.2 s, the “ΔChange (Latency at each time point − Pre value) 2 h” value was 1.7 ± 0.7 s and the “effect on the response latency” value was “the effect on the response latency was not observed”. In the series with Male ddY mice [4] (setting [6]), the “ΔChange (Latency at each time point − Pre value) 0.5 h” value stood at 16.0 ± 1.8 s, the “ΔChange (Latency at each time point − Pre value) 1 h” value was determined as 5.1 ± 1.7 s and the “ΔChange (Latency at each time point − Pre value) 2 h” value was determined as 0.9 ± 1.3 s. Also, in the series with Male ddY mice [4] (7 days), the “development of analgesic tolerance” value is “the development of analgesic tolerance was prevented”.
`COc1ccc(/C=C/c2nc3c(c(=O)n(C)c(=O)n3C)n2C)cc1OC` [Compound (ID)]: in the series on Male ddY mice [4] (setting [5]), the “ΔChange (Latency at each time point − Pre value) 0.5 h” value is 2.1 ± 0.8 s, the “ΔChange (Latency at each time point − Pre value) 1 h” value amounted to 2.3 ± 1.3 s, the “ΔChange (Latency at each time point − Pre value) 2 h” value was 2.5 ± 0.9 s and the “effect on the response latency” value is given as “the effect on the response latency was not observed”. For the same compound, in the series on Male ddY mice [4] (setting [6]), the “ΔChange (Latency at each time point − Pre value) 0.5 h” value was determined as 14.3 ± 1.7 s, the “ΔChange (Latency at each time point − Pre value) 1 h” value was found to be 5.1 ± 1.3 s and the “ΔChange (Latency at each time point − Pre value) 2 h” value was -0.1 ± 1.4 s. Further, in the series with Male ddY mice [4] (7 days), the “development of analgesic tolerance” value is recorded as “the development of analgesic tolerance was prevented”.
For `CN1CC[C@]23c4c5ccc(O)c4O[C@H]2[C@@H](O)C=C[C@H]3[C@H]1C5` [morphine, reference compound], the “number of fecal pellets” value in the series with Male ddY mice [1] (morphine 3 mg/kg s.c., pellets collected 3 hours after administration, vs normal group) is reported as “significantly decreased”. The “ΔChange (Latency at each time point − Pre value) 0.5 h” value was 21.9 ± 1.9 s in the series on Male ddY mice [2] (Table 1); 20.2 ± 1.9 ^ sec in the series with Male ddY mice [2] (Table 2); 19.5 ± 2.0 s with Male ddY mice [2] (Table 3); 16.8 ± 2.7 s in the series on Male ddY mice [2] (Table 4); 18.0 ± 2.2 s with Male ddY mice [2] (Table 5). Further, the “ΔChange (Latency at each time point − Pre value) 1 h” value in the series on Male ddY mice [2] (Table 1) turned out to be 11.8 ± 1.1 s; with Male ddY mice [2] (Table 2), 6.3 ± 1.7 s; with Male ddY mice [2] (Table 3) it was 6.4 ± 1.5 s; with Male ddY mice [2] (Table 4) it was 10.4 ± 2.2 s; with Male ddY mice [2] (Table 5), 6.8 ± 1.3 s. Further, the “ΔChange (Latency at each time point − Pre value) 2 h” value in the series with Male ddY mice [2] (Table 1) is 2.9 ± 0.9 s; in the series with Male ddY mice [2] (Table 2), 2.3 ± 0.5 s; in the series with Male ddY mice [2] (Table 3), -0.8 ± 1.5 s; in the series with Male ddY mice [2] (Table 4) it was 8.8 ± 0.6 s; in the series on Male ddY mice [2] (Table 5) it was 1.9 ± 1.0 s. For the same compound, the “development of analgesic tolerance” value with Male ddY mice [2] (Test Example 1, FIG. 1, morphine 6 mg/kg s.c. repeatedly for 7 days vs single morphine administration group) is on record as “the development of analgesic tolerance was observed”; in the series on Male ddY mice [2] (Test Example 3, morphine 6 mg/kg s.c. repeatedly for 7 days vs single morphine administration group) it was “the development of analgesic tolerance was observed”; with Male ddY mice [2] (Test Example 4, morphine 6 mg/kg s.c. repeatedly for 7 days vs single morphine administration group), “the development of analgesic tolerance was observed”; in the series on Male ddY mice [2] (Test Example 5, morphine 6 mg/kg s.c. repeatedly for 7 days vs single morphine administration group), “the development of analgesic tolerance was observed”; in the series with Male ddY mice [2] (Test Example 6, morphine 6 mg/kg s.c. repeatedly for 7 days vs single morphine administration group), “the development of analgesic tolerance was observed”.
`COc1ccc2c3c1O[C@H]1C(=O)CC[C@@]4(O)[C@@H](C2)N(C)CC[C@]314` [oxycodone, reference compound]: the “Latency (sec) Pre value (before drug administration on last day)” value in the series on Male ddY mice [3] (repeated oxycodone administration group: oxycodone 20 mg/kg p.o. twice a day, 4 days, day 4) came to 12.4 ± 1.1 s; in the series with Male ddY mice [3] (single oxycodone administration group: distilled water twice a day 3 days, oxycodone 20 mg/kg p.o. only on day 4), 11.7 ± 1.0 s. For the same compound, the “ΔChange (Latency at each time point − Pre value) 0.5 h” value in the series on Male ddY mice [3] (repeated oxycodone administration group: oxycodone 20 mg/kg p.o. twice a day, 4 days, day 4, 0.5 h) was 5.9 ± 3.4 s; in the series with Male ddY mice [3] (single oxycodone administration group: oxycodone 20 mg/kg p.o. only on day 4, 0.5 h), 17.5 ± 4.2 s. Besides, the “ΔChange (Latency at each time point − Pre value) 1 h” value in the series with Male ddY mice [3] (repeated oxycodone administration group: oxycodone 20 mg/kg p.o. twice a day, 4 days, day 4, 1 h) amounted to 2.7 ± 2.3 s; in the series with Male ddY mice [3] (single oxycodone administration group: oxycodone 20 mg/kg p.o. only on day 4, 1 h), 11.8 ± 2.0 s. Besides, the “ΔChange (Latency at each time point − Pre value) 2 h” value in the series on Male ddY mice [3] (repeated oxycodone administration group: oxycodone 20 mg/kg p.o. twice a day, 4 days, day 4, 2 h) turned out to be 0.1 ± 1.3 s; in the series on Male ddY mice [3] (single oxycodone administration group: oxycodone 20 mg/kg p.o. only on day 4, 2 h), 6.9 ± 2.4 s. The “development of analgesic tolerance” value in the series on Male ddY mice [3] (Test Example 7, oxycodone 20 mg/kg p.o. repeatedly for 4 days vs single oxycodone administration group) is “the development of analgesic tolerance was observed”.
